Data taken from ChEMBL document CHEMBL5108059, “Discovery of 2-Methyl-2-(4-(2-methyl-8-(1H-pyrrolo[2,3-b]pyridin-6-yl)-1H-naphtho[1,2-d]imidazol-1-yl)phenyl)propanenitrile as a Novel PI3K/mTOR Inhibitor with Enhanced Antitumor Efficacy In Vitro and In Vivo” (J Med Chem, 2022).

How the values were obtained:
[1] = target: T1, Phosphatidylinositol 4,5-bisphosphate 3-kinase catalytic subunit delta isoform (Homo sapiens, UniProt O00329); assay: Inhibition of PI3Kdelta (unknown origin) using PIP2 as substrate incubated for 2 hrs in presence of ATP by Kinase Glo luminescence assay
T1 sequence (O00329 whole entry): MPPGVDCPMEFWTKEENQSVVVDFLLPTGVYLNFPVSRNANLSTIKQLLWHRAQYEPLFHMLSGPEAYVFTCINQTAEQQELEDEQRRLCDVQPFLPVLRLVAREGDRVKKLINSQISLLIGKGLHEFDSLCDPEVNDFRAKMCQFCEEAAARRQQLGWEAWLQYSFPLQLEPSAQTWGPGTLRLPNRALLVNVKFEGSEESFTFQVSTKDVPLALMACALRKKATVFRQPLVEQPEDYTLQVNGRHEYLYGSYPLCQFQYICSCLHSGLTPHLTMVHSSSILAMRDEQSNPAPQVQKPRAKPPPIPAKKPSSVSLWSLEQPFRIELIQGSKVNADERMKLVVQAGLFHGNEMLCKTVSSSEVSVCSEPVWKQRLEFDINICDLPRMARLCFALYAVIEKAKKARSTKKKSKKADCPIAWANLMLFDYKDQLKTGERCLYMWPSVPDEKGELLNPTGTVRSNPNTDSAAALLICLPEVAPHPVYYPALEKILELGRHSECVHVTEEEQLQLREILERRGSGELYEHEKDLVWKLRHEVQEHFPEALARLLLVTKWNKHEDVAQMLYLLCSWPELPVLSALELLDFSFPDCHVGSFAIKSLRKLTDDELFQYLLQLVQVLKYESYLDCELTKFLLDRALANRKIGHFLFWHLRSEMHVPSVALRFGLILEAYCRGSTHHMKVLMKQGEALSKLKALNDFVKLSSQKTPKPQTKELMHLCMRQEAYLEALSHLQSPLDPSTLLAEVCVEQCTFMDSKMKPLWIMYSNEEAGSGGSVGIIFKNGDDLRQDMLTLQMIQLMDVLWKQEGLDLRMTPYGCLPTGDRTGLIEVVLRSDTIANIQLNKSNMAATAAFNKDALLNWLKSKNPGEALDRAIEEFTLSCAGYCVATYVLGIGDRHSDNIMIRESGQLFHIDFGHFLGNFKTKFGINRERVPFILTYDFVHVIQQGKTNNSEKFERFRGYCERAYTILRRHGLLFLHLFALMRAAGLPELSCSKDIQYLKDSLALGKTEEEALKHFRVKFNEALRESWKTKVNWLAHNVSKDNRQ

[2] = target: Phosphatidylinositol 4,5-bisphosphate 3-kinase catalytic subunit alpha isoform (Homo sapiens, UniProt P42336); assay: Inhibition of PI3Kalpha (unknown origin) using PIP2 as substrate incubated for 1 hr in presence of ATP by Kinase Glo luminescence assay
[3] = target: Serine/threonine-protein kinase mTOR (Homo sapiens, UniProt P42345); assay: Inhibition of N-terminal FLAG-tagged recombinant human mTOR (1362 to end residue) using ULight-4EBP1 peptide as substrate incubated for 30 mins in presence of ATP by Lance ultra assay
HeLa = assay: Antiproliferative activity against human HeLa cells assessed as inhibition of cell growth incubated for 48 to 72 hrs by MTT assay; type: functional, cell-based
NCI-H3122 = assay: Antiproliferative activity against human NCI-H3122 cells assessed as inhibition of cell growth incubated for 48 to 72 hrs by MTT assay; type: functional, cell-based
HCT-15 = assay: Antiproliferative activity against human HCT-15 cells with PIK3CA mutation assessed as inhibition of cell growth incubated for 48 to 72 hrs by MTT assay; type: functional, cell-based
SW-620 = assay: Antiproliferative activity against human SW620 cells assessed as inhibition of cell growth incubated for 48 to 72 hrs by MTT assay; type: functional, cell-based
NCI-H446 = assay: Antiproliferative activity against PTEN-null human NCI-H446 cells assessed as inhibition of cell growth incubated for 48 to 72 hrs by MTT assay; type: functional, cell-based
HT-29 = assay: Antiproliferative activity against human HT-29 cells with PIK3CA mutation assessed as inhibition of cell growth incubated for 48 to 72 hrs by MTT assay; type: functional, cell-based

Sequence of Phosphatidylinositol 4,5-bisphosphate 3-kinase catalytic subunit alpha isoform (P42336 whole entry, canonical isoform): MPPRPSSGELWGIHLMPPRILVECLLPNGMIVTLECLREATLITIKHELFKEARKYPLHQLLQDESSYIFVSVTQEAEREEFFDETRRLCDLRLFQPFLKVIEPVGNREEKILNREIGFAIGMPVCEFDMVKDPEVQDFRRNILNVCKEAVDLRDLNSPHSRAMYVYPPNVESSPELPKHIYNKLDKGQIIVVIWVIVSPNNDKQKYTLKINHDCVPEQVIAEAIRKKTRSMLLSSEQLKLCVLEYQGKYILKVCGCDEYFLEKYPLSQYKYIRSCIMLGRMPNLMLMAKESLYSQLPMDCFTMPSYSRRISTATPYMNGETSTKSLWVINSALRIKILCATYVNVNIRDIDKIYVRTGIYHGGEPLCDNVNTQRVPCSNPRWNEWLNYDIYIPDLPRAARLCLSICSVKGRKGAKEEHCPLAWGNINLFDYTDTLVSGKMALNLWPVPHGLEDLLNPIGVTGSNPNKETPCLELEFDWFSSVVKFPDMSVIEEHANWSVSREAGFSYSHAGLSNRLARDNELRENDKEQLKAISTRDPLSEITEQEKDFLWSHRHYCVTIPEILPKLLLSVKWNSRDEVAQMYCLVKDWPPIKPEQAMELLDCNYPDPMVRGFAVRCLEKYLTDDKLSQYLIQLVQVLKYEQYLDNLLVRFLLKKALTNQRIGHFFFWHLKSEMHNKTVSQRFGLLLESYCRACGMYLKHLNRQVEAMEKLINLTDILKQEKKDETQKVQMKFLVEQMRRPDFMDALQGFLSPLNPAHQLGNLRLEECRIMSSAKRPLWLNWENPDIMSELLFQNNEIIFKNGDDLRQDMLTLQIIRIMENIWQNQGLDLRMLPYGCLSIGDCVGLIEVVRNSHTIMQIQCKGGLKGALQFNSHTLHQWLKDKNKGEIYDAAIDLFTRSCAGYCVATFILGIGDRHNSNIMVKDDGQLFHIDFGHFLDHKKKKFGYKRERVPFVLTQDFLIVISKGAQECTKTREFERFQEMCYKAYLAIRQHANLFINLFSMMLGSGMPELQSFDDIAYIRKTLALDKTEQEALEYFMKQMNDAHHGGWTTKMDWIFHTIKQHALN

IC50 [1] [nM]	IC50 [2] [nM]	IC50 [3] [nM]	IC50 (HeLa) [µM]	IC50 (NCI-H3122) [µM]	IC50 (HCT-15) [nM]	IC50 (SW-620) [nM]	IC50 (NCI-H446) [µM]	IC50 (HT-29) [nM]	SMILES
814	501	> 1000							Cc1nc2cnc3ccc(-c4cnc5[nH]ccc5c4)cc3c2n1C1CC1
184	151	90.2	3.94	2.05	1170	1740	3.97	1380	Cc1nc2cnc3ccc(-c4cnc5[nH]ccc5c4)cc3c2n1[C@H](C)c1ccc(F)cc1
> 1000	> 1000	> 1000							Cc1nc2cnc3ccc(-c4cc(C(F)(F)F)cc(C(F)(F)F)c4)cc3c2n1-c1ccc(F)cc1
96.4	62.5	123	5.68	7.73	1410	3940	9.71	1320	Cc1nc2cnc3ccc(-c4cnc5[nH]ccc5c4)cc3c2n1-c1ccc(C#N)cc1
104	54.1	78.1	1.62	2.15	1520	1050	3.41	1610	Cc1nc2cnc3ccc(-c4cnc5[nH]ccc5c4)cc3c2n1[C@@H](C)c1ccccc1
			3.72	2.51	1760	1070	2.16	1310	Oc1cccc(-c2nc(N3CCOCC3)c3oc4ncccc4c3n2)c1 [PI-103]
> 1000	463	596							Cc1nc2cnc3ccc(-c4cnc(N5CCOCC5)nc4)cc3c2n1-c1ccc(F)cc1
106	117	263	2.72	6.71	3060	4160	7.59	2980	Cc1nc2cnc3ccc(-c4cnc5[nH]ccc5c4)cc3c2n1Cc1ccccc1
40.7	51.3	93.8	1.71	4.75	2020	2130	3.61	1210	Cc1nc2cnc3ccc(-c4ccc(N)nc4)cc3c2n1-c1ccc(F)cc1
32.3	41	73.9	3.64	5.61	1940	2910	4.51	2310	Cc1nc2cnc3ccc(-c4cnc5[nH]ccc5c4)cc3c2n1-c1ccccc1
852	> 1000	> 1000							Cc1noc(C)c1-c1ccc2ncc3nc(C)n(-c4ccc(F)cc4)c3c2c1
40.5	33.1	32.3	4.31	5.08	3090	2790	7.13	3250	Cc1nc2cnc3ccc(-c4cnc5ccccc5c4)cc3c2n1-c1ccc(F)cc1
90.3	68.1	121	3.13	8.75	2320	2150	6.97	1980	Cc1nc2cnc3ccc(-c4ccc(N)cc4)cc3c2n1-c1ccc(F)cc1
57.3	29.8	49.3	1.79	2.31	1920	2530	3.08	2720	Cc1nc2cnc3ccc(-c4ccc5[nH]ccc5c4)cc3c2n1-c1ccc(F)cc1
> 1000	569	> 1000							Cc1nc2cnc3ccc(-c4ccc(Cl)cc4)cc3c2n1-c1ccc(F)cc1
> 1000	472	679							Cc1nc2cnc3ccc(-c4cnc5[nH]ccc5c4)cc3c2n1C
21.7	12.5	29.1	0.19	0.37	290	230	1.08	310	Cc1nc2cnc3ccc(-c4cnc5[nH]ccc5c4)cc3c2n1-c1ccc(C(C)(C)C#N)cc1

IC50 [1] [nM]	IC50 [2] [nM]	IC50 [3] [nM]	IC50 (HeLa) [µM]	IC50 (NCI-H3122) [µM]	IC50 (HCT-15) [nM]	IC50 (SW-620) [nM]	IC50 (NCI-H446) [µM]	IC50 (HT-29) [nM]	SMILES
> 1000	672	> 1000							Cc1nc2cnc3ccc(-c4cnn(C)c4)cc3c2n1-c1ccc(F)cc1
336	251	206	19.8	> 20	> 20000	> 20000	> 20	18700	COC(=O)c1ccc(-c2ccc3ncc4nc(C)n(-c5ccc(F)cc5)c4c3c2)cc1
30.4	36.7	62.1	2.71	5.39	1970	1930	4.16	1320	Cc1nc2cnc3ccc(-c4cnc(N)nc4)cc3c2n1-c1ccc(F)cc1
105	139	84.9	2.76	5.36	1790	3210	4.82	1150	Cc1nc2cnc3ccc(-c4cnc5[nH]ccc5c4)cc3c2n1-c1ccc(CC#N)cc1
202	148	190	16.8	8.95	9750	13700	12.2	3140	Cc1nc2cnc3ccc(-c4ccc5ccccc5c4)cc3c2n1-c1ccc(F)cc1
28.6	19.3	45.2	0.51	0.67	830	1370	1.65	910	Cc1nc2cnc3cc(F)c(-c4cnc5[nH]ccc5c4)cc3c2n1-c1ccc(C(C)(C)C#N)cc1
579	357	> 1000							Cc1ccc(-c2ccc3ncc4nc(C)n(-c5ccc(F)cc5)c4c3c2)cc1
93.1	104	159	3.71	2.36	2850	1830	3.21	1530	Cc1nc2cnc3ccc(-c4cnc5[nH]ccc5c4)cc3c2n1-c1ccc(C(F)(F)F)nc1
133	195	157	> 20	> 20	12700	> 20000	> 20	9890	CNC(=O)c1ccc(-c2ccc3ncc4nc(C)n(-c5ccc(F)cc5)c4c3c2)cc1
218	307	415							Cc1nc2cnc3ccc(-c4cnc5[nH]ccc5c4)cc3c2n1CC1CCOCC1
> 1000	487	781							Cc1nc2cnc3ccc(-c4ccc(F)cc4)cc3c2n1-c1ccc(F)cc1
450	365	392							Cc1nc2cnc3ccc(-c4cnc5[nH]ccc5c4)cc3c2n1CC1CCOC1 (centres undefined)
513	352	> 1000							Cc1nc2cnc3ccc(-c4ccc(C#N)cc4)cc3c2n1-c1ccc(F)cc1
> 1000	507	> 1000							Cc1nc2cnc3ccc(-c4ccc(C(F)(F)F)cc4)cc3c2n1-c1ccc(F)cc1
> 1000	321	> 1000							COc1ccc(-c2ccc3ncc4nc(C)n(-c5ccc(F)cc5)c4c3c2)cc1
> 1000	304	487							CC(=O)c1ccc(-c2ccc3ncc4nc(C)n(-c5ccc(F)cc5)c4c3c2)cc1
